In PMC3820767, “Turning Defense into Offense: Defensin Mimetics as Novel Antibiotics Targeting Lipid II” (PLoS Pathogens, 2013):

Assays:
[1] = tested on: S. aureus MMX100 (ATCC 29213); assay: Macromolecular synthesis assays (mechanism of action); assay type: cell-based, Staphylococcus aureus
Experimental: Macromolecular synthesis inhibition by BAS00127538 and 1499-1221 were investigated using S. aureus MMX100 (ATCC 29213). Cells were grown at 35°C overnight on Tryptic Soy Agar Broth (Remel, Lenexa, KS), and growth from the plate was used to inoculate 15 ml of Mueller Hinton Broth. The culture was grown to early exponential growth phase (OD600 = 0.2 to 0.3) while incubating in a shaker at 35°C and 150 rpm. For each macromolecular assay, the test agents 1499-1221 and BAS00127538 were added at either 0, 0.25, 0.5, 1, 2, or 4, -fold their respective MIC values for S. aureus ATCC 29213.
For DNA and protein synthesis, 100 µl of cell culture reaching early exponential phase was added to triplicate wells containing various concentrations of test compound or control antibiotics (2.5 µl) at 40× the final concentration in 100% DMSO (0.1% methanol in water for Rifampicin). A 2.5% DMSO treated culture served as the “no drug” control for all experiments. Cells were added in 1.25× strength MHB to account for the volume of drug added to each reaction, or in M9 minimal medium for protein synthesis reactions. Following a 5 min incubation at room temperature either [^3H]Thymidine (DNA synthesis) or [^3H]Leucine (protein synthesis) was added at 0.5–1.0 µCi per reaction, depending on the experiment. Reactions were allowed to proceed at room temperature for 15–40 min and then stopped by adding 12 µl of cold 5% trichloroacetic acid (TCA) or 5% TCA/2% casamino acids (protein synthesis). Reactions were incubated on ice for 30 min and the TCA precipitated material was collected on a 25 mm GF/1.2 µm PES 96 well filter plate (Corning). After washing five times with 200 µl per well of cold 5% TCA, the filters were allowed to dry, and then counted using a Packard Top Count microplate scintillation counter.
For cell wall synthesis, bacterial cells in early exponential growth phase were transferred to M9 minimal medium and added to 1.5 ml eppendorf tubes (100 µl/tube) containing various concentrations of test compound or control antibiotics (2.5 µl) at 40× the final concentration in 100% DMSO as described above. Following a 5 min incubation at 37°C, [^14C] N-acetyl-glucosamine (0.4 µCi/reaction) was added to each tube and incubated for 45 min in a 37°C heating block. […] After washing three times with 5 ml of 0.1% SDS, the filters were rinsed two times with 5 ml of deionized water, allowed to dry, and then counted using a Beckman LS3801 liquid scintillation counter.
For lipid synthesis, bacterial cells were grown to early exponential growth phase in MHB and 100 µl was added to 1.5 ml Eppendorf tubes (in triplicate) containing various concentrations of test compound or control antibiotics as described above. […] Samples were then counted via liquid scintillation counting. […]

[2] = Surface Plasmon Resonance binding to immobilized 3-Lipid II; conditions: SPR; for Binding on Lipid II?: Table S3, initial determination at 10 µM
Method in brief: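 Binding was measured by Surface Plasmon Resonance on a BIAcore T100 instrument at 25°C. Peptides were injected over the sensor flow-cells at 30 µl/min in running buffer of 10 mM HEPES, 150 mM NaCl, 0.05% surfactant P20, pH 7.4 (±3 mM EDTA) with 10% DMSO. Control flow-cell signals were subtracted, surfaces were regenerated with 50 mM NaOH, and isotherms were fitted with BIAcore software.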

[3] = LUV leakage assay
Experimental: Large unilamellar vesicles were prepared by the extrusion technique. Vesicles were made of Di-Palmoyl-Phosphatidyl Choline (DPPC, Avanti Polar Lipids) with or without 0.1 mol % Lipid II. Vesicles were prepared with 50 mM rhodamine, washed with saline solution and purified by G25 Sephadex column (GE healthcare). Compounds were diluted in saline solution in 96-well plate format and vesicles were added to each well. The increase of fluorescence intensity was measured at 612 nm (excitation at 544 nm) on a Molecular Dynamics spectrophotometer at 20 °C. Compound-induced leakage was expressed relative to the total amount of rhodamine released after lysis of the vesicles by addition of 10 µl of 20% Triton X-100.

[4] = tested on: S. aureus ATCC 29213; assay: Murine peritoneal sepsis model; assay type: in vivo, C57BL/6J mice; conditions: mice n = 5, i.p. treatment 1 h and 4 h post-infection; compound […], vancomycin/lysostaphin 5 mg/kg
Experimental: Mice were fed standard chow (Harlan Laboratories) and water ad libitum. […] Animals were closely observed during a period of 24 hours and mice that show signs of severe sepsis were humanely euthanized. Blood samples were collected by retro-orbital puncture at the indicated intervals post-infection using lithium-heparin polystyrene tubes to prevent coagulation. […] Whole blood samples and spleen homogenates were serially diluted and plated onto LB agar plates.

CN1/C(=C/C=C/c2cc(-c3ccccc3)cc(-c3ccccc3)[o+]2)C(C)(C)c2ccccc21 [BAS00127538, 2,4-diphenyl-6-[(1E)-3-[(2E)-1,3,3-trimethyl-2,3-dihydro-1H-indol-2-ylidene]prop-1-en-1-yl]-1$l^4-pyran-1-ylium]
inhibition of DNA, lipid or protein synthesis ([1]; 1× MIC): not DNA, lipid or protein synthesis
inhibition of cell wall synthesis ([1]; 1× MIC, [14C]N-acetyl-glucosamine incorporation): significantly inhibited cell wall synthesis
DNA, protein and lipid synthesis ([1]; elevated concentrations (above 1× MIC)): reduced
Binding on Lipid II? [2]: Yes
Kd ([2]; immobilized 3-Lipid II): 1710 nM
leakage of LUVs ([3]; 8 µg/ml (16× MIC for S. aureus)): significant leakage
effect of Lipid II on compound-induced lysis of LUVs ([3]; LUVs with vs without Lipid II): reduced by the presence of Lipid II
survival [4]: 4 out of five animals

CN(C)c1ccc(/C=C/c2cc(-c3ccccc3)[o+]c(-c3ccccc3)c2)cc1 [Compound 1499-1221]
likely primary mechanism of action ([1]; mechanism of action studies, Figure S4): membrane perturbation
Binding on Lipid II? [2]: No
membrane rupture in LUVs ([3]; LUVs with or without Lipid II): significant membrane rupture in LUVs irrespective of Lipid II
